Calls of active or inactive are those of the source. No cut-off for these calls is given here.

Consider 24 molecules from ChEMBL document CHEMBL2203180, “Novel nitric oxide-releasing isochroman-4-one derivatives: Synthesis and evaluation of antihypertensive activity” (Bioorg Med Chem, 2012).

Data set [1] can be described thus: Induction of nitric oxide release in 0.1 mM phosphate buffer solution at pH 7.4 assessed as nitrate/nitrite level after 60 mins by Griess assay. The data set is classed as physicochemical. Particulars: pH 7.4, 1 h. (Griess reagent forms a coloured azo dye with nitrite.)
The nature of data set [2]: Induction of nitric oxide release in 0.1 mM phosphate buffer solution at pH 7.4 assessed as nitrate/nitrite level after 30 mins by Griess assay. Particulars: pH 7.4, 0.5 h. In kind it is physicochemical.
Data set [3] can be described thus: Induction of nitric oxide release in 0.1 mM phosphate buffer solution at pH 7.4 assessed as nitrate/nitrite level after 80 mins by Griess assay. In kind it is physicochemical. Particulars: pH 7.4, 80 min.
Data set [4] in a line: Induction of nitric oxide release in 0.1 mM phosphate buffer solution at pH 7.4 assessed as nitrate/nitrite level after 150 mins by Griess assay. In kind it is physicochemical. Particulars: pH 7.4, 2.5 h.
Data set [5] in a line: Induction of nitric oxide release in 0.1 mM phosphate buffer solution at pH 7.4 assessed as nitrate/nitrite level after 10 mins by Griess assay. The data set is classed as physicochemical. Particulars: pH 7.4, 10 min.
Data set [6] is described as follows: Induction of nitric oxide release in 0.1 mM phosphate buffer solution at pH 7.4 assessed as nitrate/nitrite level after 100 mins by Griess assay. Particulars: pH 7.4, 100 min. The data set is classed as physicochemical.
The nature of data set [7]: Induction of nitric oxide release in 0.1 mM phosphate buffer solution at pH 7.4 assessed as nitrate/nitrite level after 120 mins by Griess assay. Particulars: pH 7.4, 2 h. In kind it is physicochemical.
Data set [8] has as its system Rattus norvegicus. As to the kind of experiment: Antihypertensive activity in spontaneously hypertensive rat assessed as reduction of blood pressure at 80 mg/kg, po up to 24 hrs. The data set is classed as functional. Also noted: scale not given: the % may be the effect or the level left.
Data set [9] deals with Rattus norvegicus. Briefly: Antihypertensive activity in spontaneously hypertensive rat assessed as reduction of diastolic arterial pressure at 80 mg/kg, po after 6 to 12 hrs. The data set is classed as functional, Artery. The arrangement: scale not given: the % may be the effect or the level left.
Data set [10] deals with Rattus norvegicus. Briefly: Antihypertensive activity in spontaneously hypertensive rat assessed as reduction of diastolic arterial pressure at 40 mg/kg, po up to 24 hrs. The data set is classed as functional, organism-based. Also noted: dose 40 mg/kg. Particulars: Artery.
The test system of data set [11] is Rattus norvegicus. Briefly: Antihypertensive activity in spontaneously hypertensive rat assessed as reduction of mean artery pressure at 80 mg/kg, po up to 24 hrs. In kind it is functional, organism-based. The arrangement: dose 80 mg/kg.
For data set [12], the system named is Rattus norvegicus. As to the kind of experiment: Toxicity in spontaneously hypertensive rat assessed as change in heart rate at 80 mg/kg, po up to 24 hrs. The arrangement: dose 80 mg/kg, route oral. In kind it is organism-based. Particulars: in vivo.
Data set [13] in a line: Induction of nitric oxide release in 0.1 mM phosphate buffer solution at pH 7.4 assessed as nitrate/nitrite level after 10 to 150 mins by Griess assay. In kind it is physicochemical.
Data set [14] concerns Rattus norvegicus. As to the kind of experiment: Antihypertensive activity in spontaneously hypertensive rat assessed as reduction of diastolic arterial pressure at 40 mg/kg, po after 6 to 12 hrs. The data set is classed as functional, Artery. Also noted: scale not given: the % may be the effect or the level left.

Turning to `COc1cc2c(cc1OCC(=O)OCCO[N+](=O)[O-])C(=O)C(C)OC2` (centres undefined), the Activity came to 10.07 µmol/L in [1]; 8.81 µmol/L in data set [2]; 11.95 µmol/L in data set [3]; 13.99 µmol/L in data set [4]; 8.43 µmol/L in data set [5]; 12.09 µmol/L in data set [6]. Further, the Activity in data set [7] is 12.1 µmol/L.
With `COc1cc2c(cc1OCC(=O)OCCCO[N+](=O)[O-])COC(C)C2=O` (centres undefined), the Activity in data set [1] was 11.91 µmol/L; with Rattus norvegicus [8], 40%; in data set [2], 10.41 µmol/L; in [3], 14.7 µmol/L; in the data set on Rattus norvegicus [9], more than 30%; in [4], 20.62 µmol/L. The Activity was 10.37 µmol/L in data set [5], 14.61 µmol/L in data set [6], “Non-toxic” with Rattus norvegicus [12] and 17.61 µmol/L in [7]. In addition, the outcome with Rattus norvegicus [10] and in the data set with Rattus norvegicus [11] was Active.
On to `CC1OCc2c(ccc(O)c2O)C1=O` (racemic), for which, in the data set on Rattus norvegicus [10], the result was Active.
Consider `COc1ccc2c(c1OCC(=O)OCCO[N+](=O)[O-])COC(C)C2=O` (centres undefined), for which the Activity worked out at 13 µmol/L in [1]; 10.84 µmol/L in data set [2]; 13.12 µmol/L in data set [3]; 16.68 µmol/L in [4]; 10.62 µmol/L in data set [5]; 13.35 µmol/L in [6]. Also, the Activity in [7] was 13.27 µmol/L. Besides, the outcome in the data set with Rattus norvegicus [10] was Active.
As to `COc1cc2c(cc1O)C(=O)C(C)OC2` (centres undefined), the Activity entry in [13] is on record as “Not Active”.
On to `COc1ccc2c(c1OCC(=O)OCCCCO[N+](=O)[O-])COC(C)C2=O` (centres undefined), for which the Activity in data set [1] came to 6.04 µmol/L; in data set [2], 5.08 µmol/L; in [3] it was 6.27 µmol/L; in [4], 8.72 µmol/L; in [5], 4.05 µmol/L; in data set [6] it was 6.55 µmol/L. The Activity in data set [7] is 6.59 µmol/L.
Regarding `COc1cc2c(cc1OCCO[N+](=O)[O-])C(=O)C(C)OC2` (centres undefined), the Activity in [1] was found to be 6.04 µmol/L; in [2], 5.84 µmol/L; in data set [3], 6.52 µmol/L; in data set [4], 10.06 µmol/L; in data set [5], 5.56 µmol/L; in [6], 7.56 µmol/L. Besides, in data set [7], the Activity stood at 8.1 µmol/L.
With `COc1cc2c(cc1OCCCO[N+](=O)[O-])COC(C)C2=O` (centres undefined), the Activity was 18.12 µmol/L in [1]; 40% in the data set with Rattus norvegicus [8]; 17.87 µmol/L in data set [2]; 18.3 µmol/L in [3]; more than 30% with Rattus norvegicus [9]; 28.58 µmol/L in [4]. Moreover, the Activity in data set [5] is 17.45 µmol/L; in [6] it was 18.81 µmol/L; in the data set on Rattus norvegicus [12], “Non-toxic”; in data set [7], 18.95 µmol/L. For the same molecule, the outcome in the data set on Rattus norvegicus [10] and in the data set with Rattus norvegicus [11] was Active.
As to `COc1ccc2c(c1OCC(=O)OCCCO[N+](=O)[O-])COC(C)C2=O` (centres undefined), the Activity turned out to be 2.27 µmol/L in [1]; 1.19 µmol/L in data set [2]; 3.84 µmol/L in [3]; 4.86 µmol/L in [4]; 0.84 µmol/L in data set [5]; 3.95 µmol/L in data set [6]. Also, the Activity in data set [7] turned out to be 4.01 µmol/L.
Regarding `COc1ccc2c(c1OCCCCO[N+](=O)[O-])COC(C)C2=O` (centres undefined), the Activity in data set [1] was 3.02 µmol/L; in data set [2] it was 2.46 µmol/L; in data set [3], 3.84 µmol/L; in data set [4], 4.02 µmol/L; in data set [5] it was 2.19 µmol/L; in data set [6] it was 4.03 µmol/L. Also, the Activity in [7] was 4.01 µmol/L.
With `COc1ccc2c(c1OCCO[N+](=O)[O-])COC(C)C2=O` (centres undefined), the Activity in data set [1] is 4.53 µmol/L; in the data set on Rattus norvegicus [8], 40%; in data set [2], 1.78 µmol/L; in data set [3], 7.29 µmol/L; with Rattus norvegicus [9], more than 30%; in data set [4] it was 16.26 µmol/L. For the same molecule, the Activity is 1.51 µmol/L in [5], 10.5 µmol/L in [6], “Non-toxic” with Rattus norvegicus [12] and 14.61 µmol/L in data set [7]. Moreover, the result in the data set with Rattus norvegicus [10] and in the data set with Rattus norvegicus [11] was Active.
As to `COc1cc2c(cc1OCC(=O)OCCO[N+](=O)[O-])COC(C)C2=O` (centres undefined), the Activity in data set [1] was 8.64 µmol/L; in data set [2] it was 6.94 µmol/L; in [3], 11.11 µmol/L; in data set [4], 16.26 µmol/L; in data set [5] it was 6.66 µmol/L; in data set [6] it was 11.34 µmol/L. The Activity in data set [7] was 12.94 µmol/L.
On to `C[C@H](CS)C(=O)N1CCC[C@H]1C(=O)O` [CAPTOPRIL], for which, in the data set with Rattus norvegicus [10], the outcome was Active. Also, the Activity in the data set with Rattus norvegicus [14] was more than 30%.
Take `COc1cc2c(cc1OCCCCO[N+](=O)[O-])COC(C)C2=O` (centres undefined): the Activity in [1] amounted to 7.72 µmol/L; in [2] it was 5.17 µmol/L; in [3] it was 7.85 µmol/L; in data set [4], 12.99 µmol/L; in data set [5], 4.81 µmol/L; in data set [6], 8.31 µmol/L. In addition, in [7], the Activity worked out at 8.68 µmol/L.
Take `COc1cc2c(cc1OCCO[N+](=O)[O-])COC(C)C2=O` (centres undefined): the Activity in data set [1] was determined as 11.24 µmol/L; in [2], 10.25 µmol/L; in data set [3], 11.28 µmol/L; in data set [4], 14.72 µmol/L; in data set [5], 10.12 µmol/L; in [6], 12.09 µmol/L. Besides, in data set [7], the Activity came out at 12.27 µmol/L.
In the case of `COc1cc2c(cc1OCCCCO[N+](=O)[O-])C(=O)C(C)OC2` (centres undefined), the Activity in [1] amounted to 4.87 µmol/L; in data set [2], 4.83 µmol/L; in data set [3], 5.93 µmol/L; in [4], 7.54 µmol/L; in data set [5], 4.81 µmol/L; in data set [6], 6.05 µmol/L. In addition, the Activity in data set [7] amounted to 6.09 µmol/L.
Turning to `COc1cc2c(cc1OCC(=O)OCCCCO[N+](=O)[O-])COC(C)C2=O` (centres undefined), the Activity in data set [1] came out at 8.72 µmol/L; in [2] it was 7.45 µmol/L; in data set [3] it was 11.7 µmol/L; in data set [4], 14.92 µmol/L; in [5] it was 7.42 µmol/L; in data set [6] it was 11.67 µmol/L. The Activity in [7] was 11.69 µmol/L.
On to `COc1cc2c(cc1O)COC(C)C2=O` (centres undefined), for which the Activity entry in data set [13] is “Not Active”.
With `COc1cc2c(cc1OCCCO[N+](=O)[O-])C(=O)C(C)OC2` (centres undefined), the Activity in data set [1] is 6.29 µmol/L; in data set [2], 5.59 µmol/L; in [3], 6.77 µmol/L; in [4] it was 7.04 µmol/L; in data set [5], 5.14 µmol/L; in data set [6] it was 6.89 µmol/L. Besides, in [7], the Activity worked out at 7.01 µmol/L.
With `COc1cc2c(cc1OCC(=O)OCCCO[N+](=O)[O-])C(=O)C(C)OC2` (centres undefined), the Activity in data set [1] is 6.29 µmol/L; in data set [2] it was 5.76 µmol/L; in [3] it was 7.77 µmol/L; in data set [4], 8.72 µmol/L; in [5], 5.65 µmol/L; in data set [6], 8.23 µmol/L. Besides, the Activity in [7] worked out at 8.6 µmol/L.
Turning to `COc1ccc2c(c1OCCCO[N+](=O)[O-])COC(C)C2=O` (centres undefined), the Activity in [1] amounted to 9.23 µmol/L; in data set [2] it was 7.45 µmol/L; in data set [3], 9.27 µmol/L; in [4] it was 9.47 µmol/L; in [5] it was 7.42 µmol/L; in data set [6], 9.4 µmol/L. In addition, the Activity in [7] worked out at 9.43 µmol/L.
In the case of `COc1ccc2c(c1O)COC(C)C2=O` (centres undefined), in [13], the Activity result is “Not Active”.
Regarding `COc1cc2c(cc1OCC(=O)OCCCCO[N+](=O)[O-])C(=O)C(C)OC2` (centres undefined), the Activity turned out to be 7.13 µmol/L in [1]; 6.01 µmol/L in data set [2]; 8.69 µmol/L in [3]; 10.81 µmol/L in [4]; 5.73 µmol/L in [5]; 8.9 µmol/L in data set [6]. The Activity in [7] is 9.02 µmol/L.
For `CC1OCc2cc(O)c(O)cc2C1=O` (racemic), the outcome with Rattus norvegicus [10] was Active.
